Assay results from patent publication EP4467141A1, “PYRAZOLO-QUINOLINES AS SELECTIVE INHIBITORS OF GENOTOXIC STRESS-INDUCED IKK/NF- KB PATHWAYS FOR CANCER THERAPY” (Max-Delbrück-Centrum für Molekulare Medizin in der …, priority 2023, dated 2024).

Legend:
Assay in all cases: Kinase panel study
Type in all cases: biochemical
Details in all cases: read-out: Percentage of inhibition; for inhibition at 1 µM: 1000nM; for inhibition at 10 µM: 10000nM
RPS6KA1 (RSK1) = molecular target: T1, RPS6KA1 (RSK1) (Homo sapiens, UniProt Q15418)
T1 construct: purchased Thermo Fisher Scientific
T1 sequence (Q15418 whole entry): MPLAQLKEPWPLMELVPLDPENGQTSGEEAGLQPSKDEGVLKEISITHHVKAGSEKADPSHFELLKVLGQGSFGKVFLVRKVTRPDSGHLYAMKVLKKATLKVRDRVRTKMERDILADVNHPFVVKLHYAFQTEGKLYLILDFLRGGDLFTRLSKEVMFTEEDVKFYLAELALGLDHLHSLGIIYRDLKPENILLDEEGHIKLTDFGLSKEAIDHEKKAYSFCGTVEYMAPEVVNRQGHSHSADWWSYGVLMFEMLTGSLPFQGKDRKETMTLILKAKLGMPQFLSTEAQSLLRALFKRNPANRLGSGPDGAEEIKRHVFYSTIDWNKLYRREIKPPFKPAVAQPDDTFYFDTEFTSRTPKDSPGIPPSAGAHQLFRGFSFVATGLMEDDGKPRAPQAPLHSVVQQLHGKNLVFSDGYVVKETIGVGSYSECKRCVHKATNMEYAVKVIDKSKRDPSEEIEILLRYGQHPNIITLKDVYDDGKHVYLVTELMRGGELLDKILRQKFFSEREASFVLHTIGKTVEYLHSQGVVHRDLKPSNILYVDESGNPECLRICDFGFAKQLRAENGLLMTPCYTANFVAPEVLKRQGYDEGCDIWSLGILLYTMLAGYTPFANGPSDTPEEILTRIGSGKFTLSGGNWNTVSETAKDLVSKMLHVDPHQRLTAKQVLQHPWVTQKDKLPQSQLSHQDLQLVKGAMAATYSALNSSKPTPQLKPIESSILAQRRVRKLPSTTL
Summary of the method: (§1)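 Compounds were tested in vitro against the kinase panel by a service lab. Assays followed standard ZLyte or Adapta protocols. Activity was recorded as % inhibition at 10 µM or 1 µM, with IC50 values where determined.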

RET Y791F = molecular target: T2, RET Y791F (Homo sapiens, UniProt P07949, Y791F)
T2 construct: purchased Thermo Fisher Scientific
T2 sequence (P07949 29-1114 Y791F): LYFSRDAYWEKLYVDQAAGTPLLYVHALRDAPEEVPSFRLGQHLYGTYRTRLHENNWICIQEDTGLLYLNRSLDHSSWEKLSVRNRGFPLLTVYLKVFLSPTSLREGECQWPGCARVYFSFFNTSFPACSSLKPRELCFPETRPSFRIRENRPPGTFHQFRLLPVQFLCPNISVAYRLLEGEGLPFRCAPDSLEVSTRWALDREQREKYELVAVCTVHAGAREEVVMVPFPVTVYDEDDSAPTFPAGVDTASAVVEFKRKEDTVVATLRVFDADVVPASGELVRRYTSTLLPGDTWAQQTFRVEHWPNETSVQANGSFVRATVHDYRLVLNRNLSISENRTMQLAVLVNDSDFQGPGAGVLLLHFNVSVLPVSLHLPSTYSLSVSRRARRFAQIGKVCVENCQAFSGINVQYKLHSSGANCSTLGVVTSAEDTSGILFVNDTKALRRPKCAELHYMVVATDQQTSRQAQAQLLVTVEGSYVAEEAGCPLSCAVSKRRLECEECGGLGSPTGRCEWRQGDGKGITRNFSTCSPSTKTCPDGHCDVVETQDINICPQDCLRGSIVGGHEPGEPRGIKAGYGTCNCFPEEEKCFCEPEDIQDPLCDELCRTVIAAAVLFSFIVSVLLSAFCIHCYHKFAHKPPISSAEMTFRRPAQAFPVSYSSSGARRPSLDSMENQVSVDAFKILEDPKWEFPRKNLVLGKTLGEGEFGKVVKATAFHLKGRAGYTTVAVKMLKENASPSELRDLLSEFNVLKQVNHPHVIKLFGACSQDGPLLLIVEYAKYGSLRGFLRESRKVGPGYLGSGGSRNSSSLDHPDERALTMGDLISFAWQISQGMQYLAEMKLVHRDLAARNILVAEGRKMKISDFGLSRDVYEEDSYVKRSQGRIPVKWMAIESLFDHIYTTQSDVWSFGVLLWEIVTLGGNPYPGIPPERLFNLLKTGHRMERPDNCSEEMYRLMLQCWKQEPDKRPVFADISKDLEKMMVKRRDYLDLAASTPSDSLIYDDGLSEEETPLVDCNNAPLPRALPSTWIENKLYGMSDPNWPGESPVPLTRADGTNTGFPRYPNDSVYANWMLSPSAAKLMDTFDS
Summary of the method: as §1

SRC = molecular target: T3, SRC (Homo sapiens, UniProt P12931)
T3 construct: purchased Thermo Fisher Scientific
T3 sequence (P12931 whole entry): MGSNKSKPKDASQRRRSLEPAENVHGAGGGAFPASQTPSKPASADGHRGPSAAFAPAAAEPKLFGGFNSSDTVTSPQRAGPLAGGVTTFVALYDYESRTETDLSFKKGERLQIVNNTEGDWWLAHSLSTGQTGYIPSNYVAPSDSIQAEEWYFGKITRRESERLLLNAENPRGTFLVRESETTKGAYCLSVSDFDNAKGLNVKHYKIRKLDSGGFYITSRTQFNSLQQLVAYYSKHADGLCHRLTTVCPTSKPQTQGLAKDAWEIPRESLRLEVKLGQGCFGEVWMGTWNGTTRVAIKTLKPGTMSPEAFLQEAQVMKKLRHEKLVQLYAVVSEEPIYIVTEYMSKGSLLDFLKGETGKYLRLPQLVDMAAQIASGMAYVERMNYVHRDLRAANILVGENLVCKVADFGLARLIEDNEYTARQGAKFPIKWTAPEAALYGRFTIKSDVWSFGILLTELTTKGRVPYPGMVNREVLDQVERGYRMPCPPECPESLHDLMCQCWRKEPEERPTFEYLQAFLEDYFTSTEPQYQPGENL
Summary of the method: as §1

AMPK (A1/B2/G3) = molecular target: T4, AMPK (A1/B2/G3) (Homo sapiens, UniProt Q13131)
T4 construct: purchased Thermo Fisher Scientific
T4 sequence (Q13131 whole entry): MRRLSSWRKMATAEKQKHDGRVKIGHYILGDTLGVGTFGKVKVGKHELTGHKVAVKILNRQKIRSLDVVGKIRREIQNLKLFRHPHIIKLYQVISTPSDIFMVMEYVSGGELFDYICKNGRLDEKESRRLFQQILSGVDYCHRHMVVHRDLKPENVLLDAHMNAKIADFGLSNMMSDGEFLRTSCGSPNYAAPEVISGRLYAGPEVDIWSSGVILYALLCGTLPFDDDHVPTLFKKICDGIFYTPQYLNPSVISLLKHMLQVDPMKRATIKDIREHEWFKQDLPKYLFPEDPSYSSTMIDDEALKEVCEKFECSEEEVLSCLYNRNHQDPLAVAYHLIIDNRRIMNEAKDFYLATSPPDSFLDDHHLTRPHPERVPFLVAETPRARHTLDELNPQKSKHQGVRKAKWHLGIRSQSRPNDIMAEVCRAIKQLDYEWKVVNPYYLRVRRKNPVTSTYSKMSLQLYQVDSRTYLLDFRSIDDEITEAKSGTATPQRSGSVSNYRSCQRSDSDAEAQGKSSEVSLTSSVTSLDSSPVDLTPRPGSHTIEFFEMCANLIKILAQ
T4 sequence (O43741 whole entry partner): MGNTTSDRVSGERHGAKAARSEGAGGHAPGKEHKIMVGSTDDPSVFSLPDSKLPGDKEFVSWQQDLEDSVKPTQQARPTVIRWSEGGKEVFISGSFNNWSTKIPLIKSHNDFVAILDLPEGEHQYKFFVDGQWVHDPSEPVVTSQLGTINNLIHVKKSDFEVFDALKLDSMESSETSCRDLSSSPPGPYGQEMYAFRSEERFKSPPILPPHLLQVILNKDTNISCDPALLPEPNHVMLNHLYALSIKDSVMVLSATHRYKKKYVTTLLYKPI
T4 sequence (Q9UGI9 whole entry partner): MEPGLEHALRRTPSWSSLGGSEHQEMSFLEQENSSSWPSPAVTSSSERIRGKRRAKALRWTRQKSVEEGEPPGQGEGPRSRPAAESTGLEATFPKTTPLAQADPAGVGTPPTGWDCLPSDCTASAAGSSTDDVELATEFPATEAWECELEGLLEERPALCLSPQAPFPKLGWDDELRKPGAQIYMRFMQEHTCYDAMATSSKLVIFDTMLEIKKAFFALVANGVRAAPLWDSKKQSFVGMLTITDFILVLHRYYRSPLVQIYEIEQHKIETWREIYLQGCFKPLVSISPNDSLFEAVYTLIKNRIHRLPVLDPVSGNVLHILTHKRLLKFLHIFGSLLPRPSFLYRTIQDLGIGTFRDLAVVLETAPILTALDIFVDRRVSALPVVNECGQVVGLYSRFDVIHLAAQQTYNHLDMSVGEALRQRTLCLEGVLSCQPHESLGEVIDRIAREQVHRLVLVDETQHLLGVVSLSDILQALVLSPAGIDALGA
Summary of the method: as §1

IGF1R = molecular target: T5, IGF1R (Homo sapiens, UniProt P08069)
T5 construct: purchased Thermo Fisher Scientific
T5 sequence (P08069 31-1367): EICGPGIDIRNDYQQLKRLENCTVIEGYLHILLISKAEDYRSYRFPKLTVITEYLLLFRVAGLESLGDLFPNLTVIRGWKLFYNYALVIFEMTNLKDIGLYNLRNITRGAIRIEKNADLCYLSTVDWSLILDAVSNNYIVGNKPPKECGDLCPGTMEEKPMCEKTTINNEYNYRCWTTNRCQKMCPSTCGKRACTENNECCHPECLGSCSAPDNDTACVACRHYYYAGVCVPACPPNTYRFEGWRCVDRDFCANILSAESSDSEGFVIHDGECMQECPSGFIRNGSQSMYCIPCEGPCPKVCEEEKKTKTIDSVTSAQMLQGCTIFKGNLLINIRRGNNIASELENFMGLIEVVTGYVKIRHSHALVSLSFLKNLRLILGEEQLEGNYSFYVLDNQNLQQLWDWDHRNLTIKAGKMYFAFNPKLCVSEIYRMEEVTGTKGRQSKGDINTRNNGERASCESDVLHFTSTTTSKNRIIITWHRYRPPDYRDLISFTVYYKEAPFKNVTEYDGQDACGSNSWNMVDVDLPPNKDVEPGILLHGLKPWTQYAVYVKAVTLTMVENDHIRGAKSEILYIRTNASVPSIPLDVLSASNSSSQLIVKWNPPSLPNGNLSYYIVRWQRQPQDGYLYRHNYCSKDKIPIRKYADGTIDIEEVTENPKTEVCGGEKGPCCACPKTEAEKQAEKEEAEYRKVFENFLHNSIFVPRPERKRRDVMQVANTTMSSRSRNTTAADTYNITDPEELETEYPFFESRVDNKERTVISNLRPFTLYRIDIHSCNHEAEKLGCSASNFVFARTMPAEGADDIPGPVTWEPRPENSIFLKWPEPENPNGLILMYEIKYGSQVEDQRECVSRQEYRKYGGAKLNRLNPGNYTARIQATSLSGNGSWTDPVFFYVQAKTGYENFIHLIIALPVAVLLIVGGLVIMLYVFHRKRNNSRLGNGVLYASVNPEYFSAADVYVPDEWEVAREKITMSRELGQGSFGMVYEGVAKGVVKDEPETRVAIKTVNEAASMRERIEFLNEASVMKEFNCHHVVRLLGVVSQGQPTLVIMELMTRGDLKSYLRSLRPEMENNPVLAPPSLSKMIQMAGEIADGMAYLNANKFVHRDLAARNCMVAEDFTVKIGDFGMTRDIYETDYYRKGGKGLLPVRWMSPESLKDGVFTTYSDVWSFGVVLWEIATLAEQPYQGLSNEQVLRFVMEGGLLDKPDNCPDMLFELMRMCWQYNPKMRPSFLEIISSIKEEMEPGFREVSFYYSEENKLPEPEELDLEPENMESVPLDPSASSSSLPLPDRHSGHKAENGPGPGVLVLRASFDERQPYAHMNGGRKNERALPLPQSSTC
Summary of the method: as §1

EPHB1 = molecular target: T6, EPHB1 (Homo sapiens, UniProt P54762)
T6 construct: purchased Thermo Fisher Scientific
T6 sequence (P54762 18-984): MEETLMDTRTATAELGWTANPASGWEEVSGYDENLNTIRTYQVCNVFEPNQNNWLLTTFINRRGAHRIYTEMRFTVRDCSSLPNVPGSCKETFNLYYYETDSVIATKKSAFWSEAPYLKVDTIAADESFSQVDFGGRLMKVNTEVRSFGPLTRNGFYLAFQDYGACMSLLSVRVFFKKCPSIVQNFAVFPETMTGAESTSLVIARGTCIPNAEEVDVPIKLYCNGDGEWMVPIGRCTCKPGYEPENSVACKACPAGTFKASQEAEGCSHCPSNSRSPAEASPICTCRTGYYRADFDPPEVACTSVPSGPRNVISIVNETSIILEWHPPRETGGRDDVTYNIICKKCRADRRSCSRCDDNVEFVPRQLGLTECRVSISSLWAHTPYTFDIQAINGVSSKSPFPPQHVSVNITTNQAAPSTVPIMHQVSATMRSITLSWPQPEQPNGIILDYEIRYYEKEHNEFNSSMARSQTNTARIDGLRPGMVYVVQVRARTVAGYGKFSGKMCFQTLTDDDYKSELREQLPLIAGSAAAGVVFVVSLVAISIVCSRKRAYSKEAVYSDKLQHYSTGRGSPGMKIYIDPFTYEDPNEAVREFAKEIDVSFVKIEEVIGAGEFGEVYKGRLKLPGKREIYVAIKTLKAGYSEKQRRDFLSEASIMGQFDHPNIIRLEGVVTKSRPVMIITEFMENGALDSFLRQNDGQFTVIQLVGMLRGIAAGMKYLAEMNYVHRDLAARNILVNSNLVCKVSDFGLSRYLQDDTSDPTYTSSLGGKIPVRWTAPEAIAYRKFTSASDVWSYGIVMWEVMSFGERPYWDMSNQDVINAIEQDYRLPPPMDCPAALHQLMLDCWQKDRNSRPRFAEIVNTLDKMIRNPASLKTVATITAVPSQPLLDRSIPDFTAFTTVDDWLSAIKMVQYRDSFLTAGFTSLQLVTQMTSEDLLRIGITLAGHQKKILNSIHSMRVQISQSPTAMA
Summary of the method: as §1

ERBB2 (HER2) = molecular target: T7, ERBB2 (HER2) (Homo sapiens, UniProt P04626)
T7 construct: purchased Thermo Fisher Scientific
Summary of the method: as §1

Row | SMILES | inhibition at 1 µM (RPS6KA1 (RSK1)) [%] | inhibition at 10 µM (RPS6KA1 (RSK1)) [%] | inhibition at 1 µM (RET Y791F) [%] | inhibition at 10 µM (RET Y791F) [%] | inhibition at 1 µM (SRC) [%] | inhibition at 10 µM (SRC) [%] | inhibition at 1 µM (AMPK (A1/B2/G3)) [%] | inhibition at 10 µM (AMPK (A1/B2/G3)) [%] | inhibition at 1 µM (IGF1R) [%] | inhibition at 10 µM (IGF1R) [%] | inhibition at 1 µM (EPHB1) [%] | inhibition at 10 µM (EPHB1) [%] | inhibition at 1 µM (ERBB2 (HER2)) [%] | inhibition at 10 µM (ERBB2 (HER2)) [%]
1 | COc1ccc2cc3c(N)nn(C(=O)c4cccc(N(C)C)c4)c3nc2c1 [MW05, (3-Amino-7-methoxypyrazolo[3,4-b]quinolin-1-yl)-[3-(dimethylamino)phenyl]methanone] | 10 | 3 | 5 | 7 | 6 | 3 | 0 | -6 | -1 | -12 | -3 | -6 | -5 | -19
2 | COc1ccc2c(c1OC)c(=O)n1c3ccc(O)cc3c3ccnc2c31 [MW01, 5-Hydroxy-10,11-dimethoxy-9H-benzo[c]indolo[3,2,1-ij][1,5]naphthyridin-9-one] | 12 | 19 | 17 | 32 | 0 | 16 | 3 | 19 | 11 | 31 | -3 | 9 | 2 | 4
